Assay results taken from patent publication US12577247B2 (BUGWORKS RESEARCH, INC., priority 2021, dated 2026).

Assays:
[1] = target: T1, A2A receptor (Homo sapiens, UniProt P29274); test: A2aR antagonism IC50, cAMP TR-FRET (Lance Ultra) in HEK-293 cells, NECA as agonist; type: cell-based; settings: A2AR IC50 (nM) (@5 nM NECA), HEK-293 cells expressing A2A receptor; agonist NECA 5 nM (EC90); inhibition of cAMP;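 further: compounds tested from 10 µM down to 0.08 nM in buffer with Rolipram at room temperature, TR-FRET cAMP signal read 1 h after adding Eu-cAMP tracer and ULight anti-cAMP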
T1 construct: host or cells: HEK-293
T1 sequence (P29274 whole entry): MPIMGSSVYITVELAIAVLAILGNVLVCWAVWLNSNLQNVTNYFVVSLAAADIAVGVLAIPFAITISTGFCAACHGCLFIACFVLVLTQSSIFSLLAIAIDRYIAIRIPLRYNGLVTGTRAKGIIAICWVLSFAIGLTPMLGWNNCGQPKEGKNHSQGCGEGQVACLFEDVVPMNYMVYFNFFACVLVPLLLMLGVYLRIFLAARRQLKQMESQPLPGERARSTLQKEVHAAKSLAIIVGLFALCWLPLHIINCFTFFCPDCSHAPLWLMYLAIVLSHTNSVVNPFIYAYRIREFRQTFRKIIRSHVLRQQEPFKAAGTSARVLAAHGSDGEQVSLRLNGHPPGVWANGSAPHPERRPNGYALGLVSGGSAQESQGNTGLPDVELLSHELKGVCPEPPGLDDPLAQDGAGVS
Description: Adenosine A2A receptors and Adenosine A2B receptors induce the production of cAMP when activated/stimulated by an agonist like adenosine or 5′-(N-Ethylcarboxamido) adenosine (NECA). A Time-Resolved Fluorescence Energy Transfer (TR-FRET) assay was used to show the inhibition of this cAMP production in HEK cells upon treatment with compounds of the Formula I of the present disclosure.
HEK-293 cells expressing A2A receptor (#ES-011-C) or A2B receptor (#ES 013-C) were obtained from PerkinElmer. Cells were maintained in DMEM medium supplemented with 10% FBS and 200 μg/mL of G418 at 37° C. and 5% CO2. The cells were cultured in antibiotic free medium for a period of 16-20 hours prior to the assay. All subsequent steps of the assay are performed at room temperature (22-24° C.). The cells were harvested at about 80% confluency by gentle flushing with PBS, recovered by centrifugation and resuspended in stimulation buffer at the concentration of 5.0×10^6 cells/mL.
The assays were conducted in a stimulation buffer containing 1×DMEM, 5 mM HEPES, 0.1% BSA stabilizer and 20-30 μM Rolipram. Serial dilutions of compounds were made in stimulation buffer to achieve a final concentration of high micromolar (10 μM to 0.08 nM) in the reaction volume of 10 μL. The total reaction volume was 10 μL (5 μL of cells, 2.5 μL of antagonist and 2.5 μL of agonist). The stimulation was ended, and the reaction completed by adding 5 μL of 4× Eu-cAMP tracer working solution and 5 μL of 4× ULight-anti-cAMP working solution. The TR-FRET signal was measured after 1-hour incubation using a Tecan M1000 reader.

[2] = Pharmacokinetic study in dogs; type: in vivo, male Beagle dogs; settings: Dog; for half-life: dog; for Vd: read-out: Vss
Description: (§1) Intravenous (i.v) and Oral formulations for pharmacokinetic (PK) studies was formulated in different vehicles and excipients to achieve the desirable solubility for intravenous and Oral routes of administration.
(§2) Appropriate amount of the test compound was weighed and dissolved in required volume of the vehicles, followed by vertexing for a few seconds to dissolve the compound. Then the solution (or) suspension was sonicated at room temperature for 5 minutes to obtain a visually clear solution and or homogenous suspension. All the formulations were prepared freshly at room temperature before dosing.
The dog PK study was carried out in male Beagle dogs of minimum 10 Kg body weight to estimate the plasma clearance, volume of distribution and terminal half-life, area under curve (AUC) and peak plasma concentration (Cmax), time of peak plasma concentration (Tmax) and absolute bioavailability (% F) following intravenous and oral routes of administration.
Briefly, Example 13 and Example 39 was administered to a group of 3 non-naïve male dogs. The first set of 3 animals received an intravenous administration and following a washout period of 7 days, received an oral administration of Example 13. Following a further 7-day washout the animals will then repeat the intravenous and oral dosing regimen with an administration of Example 39. Blood samples (1 mL) was collected from the jugular vein by venepuncture into tubes containing K2EDTA anticoagulant at the following sampling times: • IV: Predose, 0.083 (5 min), 0.25, 0.5, 1, 2, 4, 8 and 24 hrs post-dose. • PO: Predose, 0.25, 0.5, 1, 2, 4, 8 and 24 hrs post-dose.
Immediately following collection blood samples was inverted to ensure mixing with anticoagulant and placed on wet ice. As soon as practically possible samples were centrifuged (3000 rpm, 10 min, at 4° C.) and the resultant plasma decanted into appropriately labelled polypropylene tubes in 96-well plate format and stored in a freezer set to maintain a temperature of ≤−65° C., until analysis.
(§3) Plasma samples were analysed for a fit-for purpose LC-MS/MS method with a lower limit of quantification. The pharmacokinetic parameters were calculated using the non-compartmental analysis tool of validated Phoenix® WinNonlin® software (Certara, USA version 8.4) with linear up and log down method for estimating AUC.
(§4) All animals in intravenous (IV bolus) group were under fed state and animals in oral groups were fasted overnight (min 12 hr) before dose administration and food was provided 4 h post dose administration. All animals were received water ad libitum during the study period. The mean (±SD) pharmacokinetic parameters of Example 13, Example 122b & Example 39 following IV bolus and Oral dose administration in Mice/Rat and Dog is provided in Table-9.

[3] = Pharmacokinetic study in mice; type: in vivo, CD1 mice
[4] = target: T2, A2B receptor (Homo sapiens, UniProt P29275); test: A2bR antagonism IC50, cAMP TR-FRET (Lance Ultra) in HEK-293 cells, NECA as agonist; type: cell-based; design: host or cells: HEK-293; settings: HEK-293 cells expressing A2B receptor; agonist NECA 30 nM (EC90); inhibition of cAMP
T2 sequence (P29275 1-332): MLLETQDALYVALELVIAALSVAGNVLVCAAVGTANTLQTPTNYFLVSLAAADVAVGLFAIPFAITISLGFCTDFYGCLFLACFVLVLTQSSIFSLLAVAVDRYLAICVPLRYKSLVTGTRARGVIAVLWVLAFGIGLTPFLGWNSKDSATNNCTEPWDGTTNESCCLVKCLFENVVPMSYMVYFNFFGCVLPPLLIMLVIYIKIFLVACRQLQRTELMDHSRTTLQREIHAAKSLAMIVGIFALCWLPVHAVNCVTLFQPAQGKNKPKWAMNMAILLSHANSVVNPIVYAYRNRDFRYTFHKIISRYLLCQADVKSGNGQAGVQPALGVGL

[5] = Pharmacokinetic study in rats; type: in vivo, male Sprague-Dawley (SD) rats; settings: for Vd: read-out: Vss; for bioavailability: rat
Description: as §1, §2
The rodent pharmacokinetic studies were carried out in male Sprague-Dawley (SD) rats (8-12 weeks of age, weighing 280±20 g at the time of dosing) and CD1 mice (8-12 weeks of age, weighing 30-35 g body weight at the time of dosing) to estimate the plasma clearance, volume of distribution and terminal half-life, area under curve (AUC) and peak plasma concentration (Cmax) and time of peak plasma concentration (Tmax) following intravenous and oral routes of administration. The detailed experimental design is described in the Table 8 below.
Rats were anaesthetized by Isoflurane anaesthesia. The jugular and femoral veins of rat were cannulated, and the study was performed 48 h post cannulation. At each time point about 100 μL, of rat blood was collected from the jugular vein into a labelled microfuge tube containing 200 mM K2EDTA solution (20 μL, per mL of blood) and equivalent volume of heparinized saline was replaced following sample collection. Similarly, 25 μL, of mice blood was collected from the saphenous vein into a labelled microfuge tube containing 200 mM K2EDTA solution
Serial blood sampling method was used for blood collection. Blood samples were collected at pre-dose, 0.25 h, 0.5, 1, 2, 4, 6, 8 and 24-hours post dose. The blood samples were processed to obtain the plasma samples within 30 min of scheduled sampling time. All plasma samples were stored −70° C. until bioanalysis.
as §3, §4

[6] = Plasma protein binding, equilibrium dialysis, mouse; type: in vitro ADME; settings: plasma (10% plasma, extrapolated to 100% plasma), CD-1 plasma, 18 hours at 37° C.
Description: Protein binding is measured using the equilibrium dialysis technique. Compound is added to 10% plasma giving a concentration of 10 μM and dialysed with isotonic buffer for 18 hours at 37° C. The plasma and buffer solutions are analysed using generic LC UV/MS and the first apparent binding constant for the compound derived. The binding constant is then used to determine the % free in 100% plasma
The percentage of plasma bound/unbound fraction preparation was calculated as follows
[formula] [formula] where, • Tc=Total plasma concentration was determined by the calculated concentration on the plasma side of the chamber • Fc=[…] was determined by the calculated concentration on the buffer side of the chamber • To=Total compound concentration determined before analysis.

[7] = male, Beagle, plasma, iv, i.v, 3 mg/kg
[8] = male, Sprague-Dawley, plasma, iv, Rat, i.v, 3 mg/kg

Q: Which results are given for `Cc1cccc(CCNc2nc3c(C)c(C)nn3c(N)c2C#N)n1` [Example 13, 7-amino-5-((2-(6-methylpyridin-2-yl)ethyl)amino)-2,3-dimethylpyrazolo[1,5-a]pyrimidine-6-carbonitrile]?
A: IC50 [1]: 0.25 nM; Total systemic clearance relative to hepatic clearance [2]: equivalent to that of hepatic clearance; Volume of distribution relative to total body water (TBW) [2]: 3 × TBW; Total CLsystemic in plasma ([2]; Table 6): 33 mL/min/kg; Co (head Co*/) ([2]; i.v, 3 mg/kg): 2899 ng/m; half-life ([2]; male, Beagle, plasma, iv, 3 mg/kg, IV bolus, Table 6, read-out: T1/2 (IV bolus) (converted)): 46.2 min; half-life ([2]; male, Beagle, plasma, iv, 3 mg/kg, i.v, 3 mg/kg, read-out: t1/2 (converted)): 42 min; Vd ([2]; male, Beagle, plasma, intravenous, Table 6): 1.8 L/kg; clearance [2, 7]: 33 ± 3.6 mL/min/kg; Vd [2, 7]: 1.75 L/kg; bioavailability ([2]; male, Beagle, plasma, oral, 10 mg/kg, Table 6, read-out: % F): 25%; Cmax ([2]; male, Beagle, plasma, po, p.o, 10 mg/kg, read-out: Cmax (head Co*/)): 839 ng/mL; Tmax ([2]; male, Beagle, plasma, po, p.o, 10 mg/kg, read-out: Tmax (head Tma)): 30 min; bioavailability ([2]; male, Beagle, plasma, oral 10 mg/kg vs IV bolus 3 mg/kg, read-out: % F (bioavailability)): 25%; Exposure after subcutaneous (SC) dose relative to oral route [3]: 32 ×; Cmax ([3]; CD1, mouse, plasma, sc, 10 mg/kg, s.c, 10 mg/kg, read-out: Cmax (head Co*/)): 1350 ng/mL; Tmax ([3]; CD1, mouse, plasma, sc, 10 mg/kg, s.c, 10 mg/kg, read-out: Tmax (head Tma)): 30 min; IC50 [4]: 3.4 nM; Total CLsystemic in plasma ([5]; Rat, Table 6): 69 mL/min/kg; Co (head Co*/) ([5]; Rat, i.v, 3 mg/kg): 2242 ng/m; Vd ([5]; male, Sprague-Dawley, plasma, intravenous, Rat, Table 6): 1.4 L/kg; clearance [5, 8]: 69 ± 9 mL/min/kg; Vd [5, 8]: 1.4 L/kg; half-life ([5]; male, Sprague-Dawley, plasma, iv, Rat, i.v, 3 mg/kg, read-out: t1/2 (converted)): 24 min; Cmax ([5]; male, Sprague-Dawley, plasma, po, Rat, p.o, 10 mg/kg, read-out: Cmax (head Co*/)): 4.2 ng/mL; Tmax ([5]; male, Sprague-Dawley, plasma, po, Rat, p.o, 10 mg/kg, read-out: Tmax (head Tma)): 12 min; half-life ([5]; male, Sprague-Dawley, plasma, Rat, IV bolus, Table 6, read-out: T1/2 (IV bolus) (converted)): 24.6 min; bioavailability ([5]; male, Sprague-Dawley, plasma, oral, Rat, Table 6, read-out: % F): < 1%; bioavailability ([5]; male, Sprague-Dawley, plasma, oral, Rat, oral vs IV bolus, doses per compound, read-out: % F (bioavailability)): < 5%; bioavailability ([5]; male, Sprague-Dawley, plasma, po, Rat, oral vs IV bolus, doses per compound, read-out: % F (bioavailability)): < 1%; Distribution relative to TBW ([5]; rats & mice): 2 × TBW; fraction unbound at 18 h, 10 µM [6]: 0.0933
